Results reported in patent US20240252508A1, “Novel glucose uptake inhibitors for use in the treatment of cancer” (NOVELYEAST BV, priority 2021, published 2024).

Key:
[1] = test system: A549 lung adenocarcinoma cells; assay: A549 cell proliferation / growth inhibition; type: cell-based, human; conditions: 50 μM compound, 1 mM glucose
How it was run: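 A549 growth screened in RPMI with 1 mM glucose, compounds at 50 μM; cell number from counts of Hoechst-stained nuclei after 3 days. Growth curves also followed by IncuCyte phase-contrast confluency over 3–5 days (1000–1500 cells/well), DMSO ≤0.1%, ≥4 technical repeats.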

[2] = test system: tps1Δ cells; assay: Growth rescue of tps1Δ strain on glucose (growth curves, 2% galactose medium); type: cell-based, S. cerevisiae
How it was run: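 tps1Δ yeast pregrown in Complete Synthetic medium with 2% galactose, washed, resuspended to OD 0.1; compounds added 10 min before glucose. Growth followed as OD595 every 30 min at 30 °C in at least three technical replicates.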

[3] = test system: tps1Δ cells; assay: Glu6P and Fru1,6bisP levels after glucose addition to tps1Δ cells; type: cell-based, S. cerevisiae
Protocol: For measuring metabolite levels, cells were typically grown in Complete Synthetic medium. […] However, when comparing the effect of Warbicins on metabolite profiles of wild type and tps1Δ strains (FIG. 2f-k), cells were grown on 2% galactose. When grown to exponential phase, cells were harvested by centrifugation and washed twice with ice-cold 25 mM 2-(N-Morpholino)ethanesulfonic acid (MES) buffer, pH 6. Cells were suspended in Complete Synthetic medium without sugar at a concentration of 75 mg (wet weight)/mL followed by a temperature equilibration at 30° C. in a shaking water bath for 30 min. Depending on the experiment, a final concentration of 2.5 mM, 7.5 mM or 10 mM glucose was added to the cell suspension. Compounds were added 10 min prior to glucose addition. […]
Through endpoint measurement of the absorbance of NADH or NADPH at 340 nm, metabolite concentrations were calculated by applying Lambert's Law. Different metabolites were measured through the use of coupled enzymatic reactions. […] Depending on the measured metabolite, different co-factors and auxiliary enzymes were added. For measuring glucose-6-phosphate, 0.8 mg/ml NADP^+ was added to the assay buffer after which the baseline absorbance was measured. […] After stabilization of the OD340 spectra, ATP concentrations were measured by additionally adding 10 mM MgCl2 and 0.5 mM glucose to the assay buffer. […]

Cc1nc(SCC(N)=O)c2c3c(sc2n1)CCCC3 [55C]
Selected from primary screen for growth inhibition of A549 cells at 50 μM [1]: No
Rescue of the tps1Δ strain on 2.5 mM glucose at 100 μM ([2]; 100 μM compound, 2.5 mM glucose): No
Rescue of tps1Δ cells on 2.5 mM glucose ([2]; 100 μM, 2% galactose + 2.5 mM glucose): highly active
Glu6P and Fru1,6bisP hyperaccumulation after addition of 2.5 mM glucose [3]: did not prevent hyperaccumulation of sugar phosphates
